5 molecules from patent publication US20250296971A1, “GASTRIC INHIBITORY PEPTIDE RECEPTOR LIGANDS” (priority 2021, published 2025) can be followed below.

*1 amine or outer side, *2 acyl side, *3 side chain or, on linkers, in order; H or OH if unused. Where a SMILES comes first, the peptide text is derived from it. Bridges are numbered along the chain shown (N, C = ends). [ ]: non-standard residue; d: D form. The star is where a group is joined. X5 = NC(=O)[C@H](CCCCNC(=O)CN1CCN(CC(=O)O)CCN(CC(=O)O)CCN(CC(=O)O)CC1)NC(=O)CCC(=O)NCCCOCCOCCOCCCN*; X3 = O=C(O)CN1CCN(CC(=O)O)CCN(CC(=O)NCCCOCCOCCOCCCN*)CCN(CC(=O)O)CC1; DOTA = O=C(O)CN1CCN(CC(=O)O)CCN(CC(=O)*)CCN(CC(=O)O)CC1; Trp(5-Cl) = N[C@@H](Cc1c[nH]c2ccc(Cl)cc12)C(=O)O; Pyridine(2,6-diCH2) = c1cc(C[*:1])nc(C[*:2])c1; APAc = 4-amino-1-carboxymethylpiperidine; mXylylene = c1cc(C[*:1])cc(C[*:2])c1; Glutaryl = O=C(CCCC(=O)[*:2])[*:1]; AGLU = 1-amino-1-deoxy-D-glucitol; Hyp = O=C(O)[C@@H]1C[C@@H](O)CN1; dGlu(AGLU) = not defined here; Suc = O=C(CCC(=O)[*:2])[*:1]; Api = NC1(C(=O)O)CCNCC1

For data set [1], the target named is T1, GIPR (CHO-K1-hGIPR cells) (Homo sapiens, UniProt P48546).
T1 construct: host or cells: CHO-K1
T1 sequence (P48546 22-466): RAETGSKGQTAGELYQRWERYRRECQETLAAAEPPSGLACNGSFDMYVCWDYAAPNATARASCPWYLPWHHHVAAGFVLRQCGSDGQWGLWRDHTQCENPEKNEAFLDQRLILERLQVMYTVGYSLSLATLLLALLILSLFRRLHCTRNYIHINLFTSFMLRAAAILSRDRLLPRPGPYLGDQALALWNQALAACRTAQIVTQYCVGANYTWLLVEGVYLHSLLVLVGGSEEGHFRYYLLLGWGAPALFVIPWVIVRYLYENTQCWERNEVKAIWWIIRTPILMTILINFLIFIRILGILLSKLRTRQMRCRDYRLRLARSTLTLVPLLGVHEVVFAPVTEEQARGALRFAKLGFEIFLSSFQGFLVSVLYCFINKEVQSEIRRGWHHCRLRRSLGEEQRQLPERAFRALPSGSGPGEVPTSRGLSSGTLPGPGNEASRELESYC
As to the kind of experiment: FACS binding assay. The note with it: competition with 20 nM GIP-057, 4° C., 1 hour, read-out: pIC50 Category (converted). The essentials:
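CHO-K1 cells stably expressing human GIPR were detached with Accutase, suspended at 500.000 cells per mL in PBS with 1% FCS, and washed ice-cold. Bound peptide was detected with 1 μg/mL APC-streptavidin for 30 min on ice.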
(In general: In flow cytometry, cells or beads pass a laser one at a time.)

In data set [2] the target is Recombinant soluble human NEP (Homo sapiens, UniProt P08473). Description: Proteolytic stability assay against NEP. The note with it: NEP 100 ng/mL, compound 10 μM, 37° C., % intact compound remaining.
A short description of data set [3]: Plasma stability assay, mouse plasma. The format is in vitro ADME. The note with it: 37° C., % intact compound remaining after 4 h or 24 h. An outline of the steps: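 K2EDTA mouse or human plasma spiked with compound from 0.5 mM DMSO stock, incubated at 37 °C for 0, 4 and 24 h in duplicate. Proteins precipitated with acetonitrile/1% TFA, internal standard added; recovery and carry-over evaluated.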

Data set [4] is described as follows: Plasma stability assay, human plasma. The class given is in vitro ADME. The note with it: 37° C., % intact compound remaining after 4 h or 24 h. How it is done: In order to determine the stability of selected compounds of the invention in human and mouse plasma, a plasma stability assay was carried out. Such plasma stability assay measures degradation of compounds of the present invention in blood plasma. This is an important characteristic of a compound as compounds, with the exception of pro-drugs, which rapidly degrade in plasma, generally show poor in vivo efficacy. […] The stability is sufficient for the diagnostic, therapeutic and theragnostic use of these compounds according to the present invention.
The plasma stability samples were prepared by spiking 50 μL plasma aliquots (all K2EDTA) with 1 μL of a 0.5 mM compound stock solution in DMS0. After vortexing the samples were incubated in a Thermomixer at 37° C. for 0, 4 and 24 hours. After incubation the samples were stored on ice until further treatment. All samples were prepared in duplicates.
A suitable internal standard was added to each sample (1 μL of a 0.5 mM stock solution in DMSO). Protein precipitation was performed by addition of 250 μL of acetonitrile containing 1% trifluoroacetic acid. After incubation at room temperature for 30 min the precipitate was separated by centrifugation and 150 μL of the supernatant was diluted with 150 μL of 1% aqueous formic acid.
Additionally, recovery was determined by spiking a pure plasma sample that only contained the internal standard after treatment with a certain amount of the compound.
Carry-over was evaluated by analysis of a blank sample (20% acetonitrile) after the highest calibration sample.

Data set [5] deals with T2, human GIPR (HEK-GIPR cells) (Homo sapiens, UniProt P48546).
T2 construct: host or cells: HEK293
T2 sequence (P48546 22-466): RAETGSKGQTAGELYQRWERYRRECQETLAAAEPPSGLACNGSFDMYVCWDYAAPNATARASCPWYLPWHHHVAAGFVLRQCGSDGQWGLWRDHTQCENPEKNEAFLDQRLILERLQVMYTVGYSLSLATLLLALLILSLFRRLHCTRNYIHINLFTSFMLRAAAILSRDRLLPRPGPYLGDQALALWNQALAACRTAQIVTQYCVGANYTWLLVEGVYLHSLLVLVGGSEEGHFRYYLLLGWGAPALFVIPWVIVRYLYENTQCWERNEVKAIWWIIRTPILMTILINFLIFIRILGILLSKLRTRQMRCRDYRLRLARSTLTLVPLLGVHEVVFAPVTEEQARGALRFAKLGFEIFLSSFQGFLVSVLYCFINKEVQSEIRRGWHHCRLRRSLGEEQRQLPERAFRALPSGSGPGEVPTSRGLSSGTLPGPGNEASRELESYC
As to the kind of experiment: cAMP assay. The class given is cell-based. The note with it: 37° C., 30 min, cAMP-Glo. How it is done:
In order to determine the inhibitory or stimulatory activity of compounds according to the present invention of GIPR-expressing cells, a cAMP activity assay was established.
HEK-GIPR cells were generated by InSCREENeX GmbH (Germany) using the targeting vector pTAR to insert the minimal CMV promoter upstream of the human GIPR cDNA by recombinase-mediated cassette exchange into the pre-tagged HEK293 cell line.
HEK-GIPR cells were cultured in RPMI-1640 medium (Sigma-Aldrich, #R0883) including 10% fetal calf serum (FCS), 8 mM L-glutamine, 100 U/mL penicillin, 100 μg/mL streptomycin and 1 mg/mL Geneticin. Cells were detached with Accutase (Biolegend, #BLD-423201) and diluted in culture medium to a final concentration of 100,000 cells per mL. 100 μL of the cell suspension were transferred to white poly-L-lysine-coated 96-well plates with optical bottom (Nunc, #165306) and incubated overnight in a humidified atmosphere containing 5% CO2 at 37° C.
For cAMP detection, the cAMP-Glo™ Assay (Promega, #V1501) was employed. […] After 10 min of incubation, luminescence was read using a SpectraMax M5 Plate Reader (Molecular Devices).
Relative luminescence values (RLU) were plotted against peptide concentration and four parameter logistic (4PL) curve fitting and calculations of EC50/pEC50 and IC50/pIC50, respectively, were performed using ActivityBase software.

The target of data set [6] is human gastric inhibitory polypeptide receptor (human GIPR) (human) (UniProt P48546). As to the kind of experiment: radioligand binding assay, 111In-labeled compound on CHO cells expressing GIPR, 6 h 37 °C; pKD category A = pKD > 9.5.

Chain of Recombinant soluble human NEP (P08473 52-750 limits assumed): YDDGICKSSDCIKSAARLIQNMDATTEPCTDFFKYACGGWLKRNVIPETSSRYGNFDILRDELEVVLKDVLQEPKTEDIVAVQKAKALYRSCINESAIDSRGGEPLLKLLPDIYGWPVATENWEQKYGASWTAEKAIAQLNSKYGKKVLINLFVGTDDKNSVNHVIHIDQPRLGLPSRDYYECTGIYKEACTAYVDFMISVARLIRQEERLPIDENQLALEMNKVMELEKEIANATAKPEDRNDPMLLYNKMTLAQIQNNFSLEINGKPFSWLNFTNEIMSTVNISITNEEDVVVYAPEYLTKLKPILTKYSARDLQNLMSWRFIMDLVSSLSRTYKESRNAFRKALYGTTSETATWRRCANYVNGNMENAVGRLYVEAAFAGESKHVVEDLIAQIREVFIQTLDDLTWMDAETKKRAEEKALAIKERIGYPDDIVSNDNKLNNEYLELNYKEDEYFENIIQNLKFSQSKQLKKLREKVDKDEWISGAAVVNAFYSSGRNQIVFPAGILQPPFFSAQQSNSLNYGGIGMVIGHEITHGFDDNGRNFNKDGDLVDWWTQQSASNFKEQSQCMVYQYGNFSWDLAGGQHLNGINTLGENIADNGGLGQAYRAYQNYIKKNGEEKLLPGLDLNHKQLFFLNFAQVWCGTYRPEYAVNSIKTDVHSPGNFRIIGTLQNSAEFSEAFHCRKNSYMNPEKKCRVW

Turning to `CC[C@H](C)[C@@H]1NC(=O)[C@H](CC(C)C)NC(=O)[C@H](C)NC(=O)[C@@H](NC(=O)[C@H](CC(C)C)NC(=O)[C@H](CCC(=O)O)NC(=O)[C@@H]2CCCN2C(=O)[C@H](Cc2c[nH]c3ccccc23)NC(=O)[C@H](Cc2c[nH]c3ccccc23)NC(=O)[C@H](CC(=O)O)NC(=O)[C@H](Cc2ccc(O)cc2)NC(=O)CCC(=O)NCCCOCCOCCOCCCNC(=O)CN2CCN(CC(=O)O)CCN(CC(=O)O)CCN(CC(=O)O)CC2)CSCc2cccc(c2)CSC[C@@H](C(N)=O)NC1=O` [GIP-126, DOTA-Ttds-Tyr-Asp-Trp-Trp-Pro-Glu-Leu-[Cys(3MeBn)-Ala-Leu-Ile-Cys]-NH2] ({X3-Suc}-YDWWPELCALIC-NH2; linker 8-12 via mXylylene), in data set [1], the IC50 is 10 to 79.4 nM. Also, the NEP stability category entry in data set [2] is recorded as “A (>80% intact after 24 hours)”. Also, the “Mouse plasma stability category” value in data set [3] is recorded as “B (>80% intact after 4 hours)”.
Consider `CC[C@H](C)[C@@H]1NC(=O)[C@H](CC(C)C)NC(=O)[C@H](C)NC(=O)[C@@H](NC(=O)[C@H](CC(C)C)NC(=O)[C@H](CCC(=O)O)NC(=O)[C@@H]2CCCN2C(=O)[C@H](Cc2c[nH]c3ccccc23)NC(=O)[C@H](Cc2c[nH]c3ccccc23)NC(=O)[C@H](CC(=O)O)NC(=O)[C@H](Cc2ccc(O)cc2)NC(C)=O)CSCc2cccc(c2)CSC[C@@H](C(=O)NCCCOCCOCCOCCCNC(=O)CCC(=O)N[C@@H](CCCCNC(=O)CN2CCN(CC(=O)O)CCN(CC(=O)O)CCN(CC(=O)O)CC2)C(N)=O)NC1=O` [GIP-127, Ac-Tyr-Asp-Trp-Trp-Pro-Glu-Leu-[Cys(3MeBn)-Ala-Leu-Ile-Cys]-Ttds-Lys(DOTA)-NH2] (Ac-YDWWPELCALIC-X5; linker 8-12 via mXylylene), for which the IC50 in data set [1] was 10 to 79.4 nM. Besides, in data set [2], the NEP stability category result is listed as “A (>80% intact after 24 hours)”. Besides, the “Mouse plasma stability category” value in data set [3] is given as “B (>80% intact after 4 hours)”.
`CC[C@H](C)[C@@H]1NC(=O)[C@H](CC(C)C)NC(=O)[C@H](C)NC(=O)[C@@H](NC(=O)[C@H](CC(C)C)NC(=O)[C@H](CCC(=O)O)NC(=O)[C@@H]2CCCN2C(=O)[C@H](Cc2c[nH]c3ccccc23)NC(=O)[C@H](Cc2c[nH]c3ccccc23)NC(=O)[C@H](CC(=O)O)NC(C)=O)CSCc2cccc(c2)CSC[C@@H](C(N)=O)NC1=O` [GIP-244, Ac-Asp-Trp-Trp-Pro-Glu-Leu-[Cys(3MeBn)-Ala-Leu-Ile-Cys]-NH2] (Ac-DWWPELCALIC-NH2; linker 7-11 via mXylylene): the “Human plasma stability category” value in data set [4] is “B (>80% intact after 4 hours)”. In data set [1], the IC50 is 10 to 79.4 nM. In data set [2], the NEP stability category result is reported as “A (>80% intact after 24 hours)”. For the same molecule, the “Mouse plasma stability category” value in data set [3] is recorded as “B (>80% intact after 4 hours)”.
As to GIP(1-30) C-ter. ^natInDOTA, the “Mean pEC50 ± SD” value in data set [5] was determined as 12.0 ± 0.1.

B1: 111In-labeled AGLU-Glutar-Asp-Trp-5Clw-Hyp-Glu-leu-[Cys(2Lut)-Apc(DOTA)-Leu-Ile-Cys]-APAc-glu(AGLU)-NH2 (111In-GIP-002) (peptide)
peptide: {AGLU-Glutaryl}-DW[Trp(5-Cl)][Hyp]E[dL]C[Api](DOTA)LIC-{APAc-dGlu(AGLU)-NH2}
modifications: linker 7-11 via Pyridine(2,6-diCH2); reading uncertain; also: DOTA complexed with 111In
Consider B1, for which, in data set [6], the pKD is greater than 9.5 pkd.
